The target in test [1] is T1, Neutrophil elastase (Homo sapiens, UniProt P08246).
T1 sequence (P08246 whole entry): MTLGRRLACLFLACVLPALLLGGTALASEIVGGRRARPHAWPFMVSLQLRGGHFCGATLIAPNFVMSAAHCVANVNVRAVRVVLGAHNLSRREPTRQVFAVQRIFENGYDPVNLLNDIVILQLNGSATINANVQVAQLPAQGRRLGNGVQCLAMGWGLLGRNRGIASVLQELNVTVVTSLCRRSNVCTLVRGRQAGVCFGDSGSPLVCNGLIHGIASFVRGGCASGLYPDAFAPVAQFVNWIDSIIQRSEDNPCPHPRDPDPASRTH
As to the kind of experiment: In vitro inhibition constant of human leukocyte elastase.

Test [2] concerns Cricetinae gen. sp. As to the kind of experiment: In Vivo evaluation of the Compound for the percentage inhibition of HLE at 60 mg/kg dose by intravenous administration. The class given is functional, Cricetulus griseus.

The Ki is a dissociation constant, usually derived from enzyme kinetics or from competition with a known ligand. A high value points to a looser hold on the target. With `O=C(OCN1C(=O)c2ccccc2S1(=O)=O)c1c(F)cccc1F`, the Ki in test [1] worked out at 8 nM. On the same count and under the same terms, for `Cc1cccc2c1C(=O)N(COC(=O)c1c(Cl)cccc1Cl)S2(=O)=O` the value was 2 nM; for `COc1cccc(OC)c1C(=O)OCN1C(=O)c2ccccc2S1(=O)=O`, 8 nM; for `O=C(OCN1C(=O)c2ccccc2S1(=O)=O)c1ccccc1`, 31 nM. Consider `CC(C)(C)c1cccc2c1C(=O)N(COC(=O)c1c(Cl)cccc1Cl)S2(=O)=O`, for which affinity in test [1] was put at a Ki of 26 nM. In general, inhibition in vivo refers to the percentage by which the read-out fell short of the control. Low readings indicate a response near the control, high ones a response far below the control. In test [1], `CC(C)c1cccc2c1C(=O)N(COC(=O)c1c(Cl)cccc1Cl)S2(=O)=O` had a Ki of 0.03 nM. The inhibition in vivo at 60 mg/kg in test [2] was found to be 47%. In turn, `O=C(OCN1C(=O)c2ccccc2S1(=O)=O)c1c(C(F)(F)F)cccc1C(F)(F)F` had a Ki in test [1] of 37 nM. The molecule `Cc1cccc(C)c1C(=O)OCN1C(=O)c2ccccc2S1(=O)=O` yielded a Ki in test [1] of 4 nM. As for `CCc1cccc2c1C(=O)N(COC(=O)c1c(Cl)cccc1Cl)S2(=O)=O`, the Ki in test [1] turned out to be 0.17 nM. Turning to `O=C(OCN1C(=O)c2c(-c3ccccc3)cccc2S1(=O)=O)c1c(Cl)cccc1Cl`, the Ki in test [1] came out at 1 nM. Turning to `CC(=O)Nc1cccc(Cl)c1C(=O)OCN1C(=O)c2ccccc2S1(=O)=O`, the affinity in test [1], expressed as Ki, was 18 nM. Same read-out and setting: the value for `CC(=O)OCN1C(=O)c2ccccc2S1(=O)=O` was 102 nM; that for `O=C(OCN1C(=O)c2ccccc2S1(=O)=O)c1c(Br)cccc1Br` was 8.5 nM.

For the molecule `CCC(C)c1cccc2c1C(=O)N(COC(=O)c1c(Cl)cccc1Cl)S2(=O)=O` (stereo not given), the affinity in test [1] corresponds to a Ki of 0.06 nM.
